# Reference: patent US6916831B2, “Flavone acetic acid analogs and methods of use thereof” (The University of North Carolina at Chapel Hill, priority 2003, dated 2005)
# pIC50: −log10 of the molar value. Where two headings read alike, the source gives them in different places.
# What was measured:
# [1] = tested on: human melanoma cancer (SKMEL-2); experiment: Cytotoxicity, SRB assay, SKMEL-2 cells; format: cell-based; settings: 50% reduction in adsorbance at 562 nm relative to untreated cells
# Method: (§1) Compounds 2-4 and 9-12 were evaluated in a tubulin polymerization assay and for cytotoxicity. Tubulin polymerization assays were performed as described in Y. Xia et al., J. Med. Chem. 1998, 41, 1155. Cytotoxic assays were performed as described in L. Rubinstein et al., J. Natl. Cancer Inst. 1990, 82, 1113-8.
# human lung cancer (A549) = experiment: Cytotoxicity, SRB assay, A549 cells; format: cell-based; settings: 50% reduction in adsorbance at 562 nm relative to untreated cells
# Method: as §1
# [2] = tested on: human breast cancer (MCF-7); experiment: Cytotoxicity, SRB assay, MCF-7 cells; format: cell-based; settings: 50% reduction in adsorbance at 562 nm relative to untreated cells
# Method: as §1
# tubulin polymerization = experiment: Tubulin polymerization assay (ITP); format: biochemical; settings: for pIC50: concentration that inhibits the extent of assembly by 50% after 20 min at 30° C.
# Method: as §1
# [3] = tested on: xenograft ovarian OVCAR-3; settings: treated mice, xenograft ovarian OVCAR-3 model; cited from earlier work
# [4] = tested on: human epidermoid carcinoma of the nasopharynx (KB); experiment: Cytotoxicity, SRB assay, KB cells; format: cell-based; settings: for ED50 KB: SRB assay, 50% reduction in adsorbance at 562 nm relative to untreated cells; for number in parentheses after the ED50 bound, KB: not defined in the patent, stands after the highest concentration (>20 or >10 μg/mL)
# Method: as §1
# bone carcinoma (HOS) = experiment: Cytotoxicity, SRB assay, HOS cells; format: cell-based, human; settings: 50% reduction in adsorbance at 562 nm relative to untreated cells
# Method: as §1
# [5] = tested on: human ovarian cancer (1A9); experiment: Cytotoxicity, SRB assay, 1A9 cells; format: cell-based; settings: 50% reduction in adsorbance at 562 nm relative to untreated cells
# Method: (§2) Cytotoxic assays were performed as described in L. Rubinstein et al., J. Natl. Cancer Inst.
# [6] = tested on: glioblastoma carcinoma (U-87-MG); experiment: Cytotoxicity, SRB assay, U-87-MG cells; format: cell-based, human; settings: 50% reduction in adsorbance at 562 nm relative to untreated cells
# Method: as §1
# [7] = tested on: seven human tumor cell lines; experiment: Cytotoxicity against seven human tumor cell lines (panel); format: cell-based; settings: seven human tumor cell lines: epidermoid, bone, ovarian, glioblastoma, melanoma, lung, breast
# Method: as §2
Compound,pIC50 (tubulin polymerization),melting point [°C],ED50 SKMEL-2 [1] [µg/mL],ED50 A549 (human lung cancer (A549)) [µg/mL],ED50 MCF-7 [2] [µg/mL],activity in the tubulin polymerization assay (in words) (tubulin polymerization),increase in life span [3] [%],ED50 KB [4] [µg/mL],ED50 HOS (bone carcinoma (HOS)) [µg/mL],ED50 1A9 [5] [µg/mL],ED50 U87-MG [6] [µg/mL],activity in the tubulin polymerization assay (in words) (tubulin polymerization; listed as 2-Phenyl-4-quinolone-8-acetic acid),cytotoxicity in vitro (in words) [7],"number in parentheses after the ED50 bound, KB [4]",fold more active in the tubulin polymerization assay (tubulin polymerization; compound 10 relative to the inactive 9 and 12 (IC50>40 μM))
O=c1cc(-c2ccccc2F)[nH]c2cc3c(cc12)OCO3 [Compound 1],,,,,,,130,,,,,,,,
"O=C(O)Cc1cccc2c1N=C(c1ccccc1F)CC2=O [Compound 12, 2-(2′-Fluorophenyl)-4-quinolone-8-acetic acid]",< 4.40,243 to 245,0.05,0.06,0.12,not inhibitors of tubulin polymerization,,0.03,0.04,0.02,0.07,,extremely potent,,
O=C(O)Cc1ccc2c(=O)cc(-c3ccccc3F)[nH]c2c1 [Compound 4],4.40 to 4.70,,> 20,> 20,> 20,totally inactive,,> 20,,> 20,,,,8,
2-Phenyl-4-quinolone-6-acetic acid [Compound 3],4.70 to 5.00,,> 20,> 20,> 20,,,> 20,> 20,> 20,> 20,,,36,

# Continued, in another order:
pIC50 (tubulin polymerization),melting point [°C],Compound,ED50 SKMEL-2 [1] [µg/mL],ED50 A549 (human lung cancer (A549)) [µg/mL],ED50 MCF-7 [2] [µg/mL],activity in the tubulin polymerization assay (in words) (tubulin polymerization),increase in life span [3] [%],ED50 KB [4] [µg/mL],ED50 HOS (bone carcinoma (HOS)) [µg/mL],ED50 1A9 [5] [µg/mL],ED50 U87-MG [6] [µg/mL],activity in the tubulin polymerization assay (in words) (tubulin polymerization; listed as 2-Phenyl-4-quinolone-8-acetic acid),cytotoxicity in vitro (in words) [7],"number in parentheses after the ED50 bound, KB [4]",fold more active in the tubulin polymerization assay (tubulin polymerization; compound 10 relative to the inactive 9 and 12 (IC50>40 μM))
< 4.40,,O=C(O)Cc1cccc2[nH]c(-c3ccccc3F)cc(=O)c12 [Compound 2],> 20,> 20,> 20,totally inactive,,,,,,,,,
< 4.40,,"O=C(O)Cc1cccc2c1N=C(c1ccccc1)CC2=O [Compound 11, 2-Phenyl-4-quinolone-8-acetic acid]",0.06,0.11,0.44,totally inactive,,0.04,0.07,0.04,0.12,not inhibitors of tubulin polymerization,extremely potent,,
< 4.40,76 to 78,"COC(=O)Cc1cccc2c(=O)cc(-c3ccccc3)[nH]c12 [Compound 9, 2-Phenyl-4-quinolone-8-methyl acetate]",> 20,,> 20,,,> 20,> 20,> 20,,,,8,
~5.00,,COC(=O)Cc1cccc2c(O)cc(-c3ccccc3F)nc12 [Compound 10],> 10,> 10,> 10,,,> 10,> 10,7.50,,,selective activity against ovarian cancers,29,about 4 fold
